Where a SMILES comes first, the peptide text is derived from it.
Assays:
[1] = test system: three human cancer cell lines (breast, prostate, or kidney); assay: Sulforhodamine cytostatic 6-day assay, cyclic versus linear peptide; format: cell-based; conditions: linear versus cyclic configuration
Protocol: FIG. 3 presents exemplary data showing the growth suppressive activities of the oligomeric forms of P149, cyclic versus linear, are depicted in various in vitro and in vivo models. Biological activity was determined by three growth-dependent bioassays, namely; • Panel-A and A1) an immature rodent uterine bioassay; • Panel-B and B 1) an in vitro MCF-7 foci assay; • Panel-C and C1) an in vitro tumor cell cytostatic assessment. […] See text for details. Scrambled peptide=P327.
GIP is a major participant in tumor cell surface interactions. GIP is a potent suppressor of tumor proliferation in both rodent and human cell models. GIP's biological activity is dependent on its oligomeric state, specifically its trimer (linear) versus monomer (cyclic) configuration. Biological activity was determined by three growth-dependent bioassays, namely, i) an immature rodent uterine assay; ii) an in vitro MCF-7 foci assay; and iii) an in vitro cytostatic assessment. […]
The cyclic form of GIP constitutes a disulfide-bridged monomer in solution, whereas GIP in the linear configuration is known to exist as an oligomeric trimer. […] Using three different human cancer cell lines (breast, prostate, or kidney) it was readily demonstrable that the monomeric cyclic form of the peptide produced 80-90% growth inhibition over a range of 10^−5 M to 10^−7 M when the sulforhodamine cytostatic 6-day assay was employed. […]

[2] = test system: 6WI-1 mammary tumor cells; assay: Mouse ascites mammary tumor assay (6WI-1 isograft); format: in vivo
Protocol: The growth suppression of the mammary ascites tumor by AFP peptides and its fragments P149a, P149b and P149c, and control peptides were determined in non-estrogen dependent assays which measured tumor cell growth and ascites accumulation of 6WI-1 mammary transplanted NYLAR/nya mice. […] Tumor cell inocula included doses of 0.3, 1.0, and 3.0×10^6 cells which produced host mortality at 12-14 days which was lethal in 100% of the animals. Following peptide dose titration studies, mice inoculated with 6WI-1 mammary cells were injected with a previously-determined optimal dose of 1.0 μg peptide per day or saline for 11 days. On day 12 following inoculation, the total accumulated ascites fluid volume and tumor cells in the peritoneal cavity of each animal were harvested and the cell count determined.
Inoculation of mice with all three cell doses led to an increase in body weight from 25 g (day 0) to approximately […] by day 12, due to the accumulation of tumor cells and ascites fluid in the intraperitoneal cavity. An average cell count in accumulated ascites fluid on day 12 was greater than 10^8 cells/ml with a total ascites volume approximating 20 mls. Tumor cell proliferation in this model has been reported to correlate with the volume of ascites fluid accumulated.
The 6WI-1 mouse mammary tumor studies involving peptide and non-peptide treatment were further compared by histopathological analysis performed on hematoxylin/eosin stained tissue sections.

[3] = test system: immature mouse uterine growth; assay: E2-activated immature mouse uterine growth assay; format: in vivo; design: concentration or dose not given beside the values
[4] = 6WI-1 mouse mammary ascites tumor

CC[C@H](C)[C@H](NC(=O)[C@@H]1CSSC[C@H](NC(=O)[C@H](C)NC(=O)[C@H](CC(C)C)NC(=O)[C@H](CC(C)C)NC(=O)[C@H](CCCCN)NC(=O)[C@H](CC(=O)O)NC(=O)[C@H](CCC(=O)O)NC(=O)[C@H](CO)NC(=O)[C@@H](N)CC(C)C)C(=O)NCC(=O)N[C@@H](CCC(=O)O)C(=O)NCC(=O)N[C@@H](C)C(=O)N[C@@H](C)C(=O)N[C@@H](CC(=O)O)C(=O)N[C@@H]([C@@H](C)CC)C(=O)N[C@@H]([C@@H](C)CC)C(=O)N[C@@H]([C@@H](C)CC)C(=O)NCC(=O)N[C@@H](Cc2c[nH]cn2)C(=O)N[C@@H](CC(C)C)C(=O)N1)C(=O)N[C@@H](CCCNC(=N)N)C(=O)N[C@@H](Cc1c[nH]cn1)C(=O)N[C@@H](CCC(=O)O)C(=O)N[C@@H](CCSC)C(=O)N[C@H](C(=O)N1CCC[C@H]1C(=O)N[C@H](C(=O)N[C@@H](CC(N)=O)C(=O)N1CCC[C@H]1C(=O)NCC(=O)N[C@H](C(=O)O)C(C)C)C(C)C)[C@@H](C)O [Cyclic GIP] (HELM PEPTIDE1{L.S.E.D.K.L.L.A.C.G.E.G.A.A.D.I.I.I.G.H.L.C.I.R.H.E.M.T.P.V.N.P.G.V}$PEPTIDE1,PEPTIDE1,9:R3-22:R3$$$V2.0; N-terminus and C-terminus assumed)
Inhibition in the in vitro cytostatic assay [1]: 80-90%

KDFIHKQGVALQTMKQELINLVKELVKPQIEAVADFSGLL (listed as Homo sapiens) [P192, reference compound]
% Inhibition Of Activity: 6WI-1 Acites Volume [2, 4]: 0%
% Inhibition Of Activity: 6WI-1 Body Weight [2, 4]: 0%
% Inhibition Of Activity: 6WI-1 Cell Prol [2, 4]: 0%
% Inhibition Of Activity: 6WI-1 Peptide Combos ([2]; peptide combination): 0%
% Inhibition Of Activity: Uterine Growth, Enzymatic Fragments [3]: 0%
